Literature values, collected in US8759069B2, “Contaminant control in Zymomonas fermentation using hop acids” (priority 2012, dated 2014).

Tests used:
[1] = test system: Zymomonas mobilis strain ZM4; settings: antibiotic concentrations that are safe to use with yeast
bacterial contamination = settings: batch Zymomonas mobilis fermentation for ethanol production

Compound | effect on Zymomonas mobilis strain ZM4 [1] | control of bacterial contamination (bacterial contamination)
CC1(C)S[C@@H]2[C@H](NC(=O)Cc3ccccc3)C(=O)N2[C@H]1C(=O)O [penicillin G] | safe for use with Zymomonas | successfully used to control bacterial contamination
[H]/N=C(/N)N[C@H]1[C@H](O)[C@@H](O)[C@H](O[C@@H]2O[C@@H](C)[C@](O)(C=O)[C@H]2O[C@@H]2O[C@@H](CO)[C@H](O)[C@@H](O)[C@@H]2NC)[C@@H](N/C(N)=N\[H])[C@@H]1O [streptomycin] | inhibitory to growth | –
polymixin | inhibitory to growth | –
